Assay results published in patent US20040171073A1, “Compounds for modulation of cholesterol transport” (Massachusetts Institute of Technology, priority 2002, published 2004).

Target: T1, murine SR-BI (Mus musculus, UniProt Q61009)
T1 construct: expressed in transfected cells; host or cells: ldlA-7 (LDL receptor deficient Chinese hamster ovary cells)
T1 sequence (Q61009 1-509): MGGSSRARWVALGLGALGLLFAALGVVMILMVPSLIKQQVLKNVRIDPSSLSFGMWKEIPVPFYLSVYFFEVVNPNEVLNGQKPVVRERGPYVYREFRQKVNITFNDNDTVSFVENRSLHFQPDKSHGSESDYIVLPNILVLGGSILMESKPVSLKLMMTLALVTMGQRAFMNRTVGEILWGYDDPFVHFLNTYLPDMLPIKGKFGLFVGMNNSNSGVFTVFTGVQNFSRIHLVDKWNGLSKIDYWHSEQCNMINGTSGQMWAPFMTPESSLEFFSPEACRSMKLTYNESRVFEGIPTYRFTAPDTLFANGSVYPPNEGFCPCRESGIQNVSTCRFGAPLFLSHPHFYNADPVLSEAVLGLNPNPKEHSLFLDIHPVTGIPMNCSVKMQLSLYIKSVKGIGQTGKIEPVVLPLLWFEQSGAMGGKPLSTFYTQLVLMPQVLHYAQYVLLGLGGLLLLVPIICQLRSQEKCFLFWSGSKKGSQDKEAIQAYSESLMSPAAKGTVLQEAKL
Assay: Uptake of DiI from DiI-HDL by ldlA[mSR-BI] cells (high throughput screen and concentration dependence)
Format: cell-based

[1] = DiI uptake from DiI-HDL, compounds at nominal 10 micromolar, ldlA[mSR-BI] cells

In the case of `CCOCc1c(C)cc(C)c(/C=N/Nc2ccc([N+](=O)[O-])cc2)c1C` [MIT 9952-174], the “ENDOHDL Test 1” value is reported as 0.6 and the “ENDOHDL Test 2” value is reported as 0.62.
In the case of `Cc1cc(=O)oc2cc(OCc3ccccc3)c(OCc3ccccc3)cc12` [MIT 9952-218], the “ENDOHDL Test 1” value is reported as 0.64 and the “ENDOHDL Test 2” value is reported as 0.33.
In the case of `O=C1Nc2ccc([N+](=O)[O-])cc2/C1=N/NC(=O)C1C2CCCCC21` (stereo not shown) [MIT 9952-184], the “ENDOHDL Test 1” value is reported as 0.6 and the “ENDOHDL Test 2” value is reported as 0.58.
In the case of `O=C(Nc1sc2c(c1C(=O)NCCc1ccc(O)cc1)CCCC2)c1ccccc1` [MIT 9952-296], the “ENDOHDL Test 1” value [1] is reported as 0.63 and the “ENDOHDL Test 2” value [1] is reported as 0.61.
In the case of `CCOC(=O)c1c(C)n(-c2ccccc2)c2ccc(NS(=O)(=O)c3ccccc3)cc12` [MIT 9952-71], the “ENDOHDL Test 1” value is reported as 0.62 and the “ENDOHDL Test 2” value is reported as 0.55.
With `C=CC/C=C/c1c(NC(=O)c2ccccc2)sc2c1CCCC2` [MIT 9952-294] the “ENDOHDL Test 1” value [1] was 0.61 and the “ENDOHDL Test 2” value [1] was 0.56.
In the case of `C/C(=N\NC(=O)COc1ccc(I)cc1)c1cccs1` [MIT 9952-254], the “ENDOHDL Test 1” value is reported as 0.69 and the “ENDOHDL Test 2” value is reported as 1.01.
`O=C(CNS(=O)(=O)c1ccc([N+](=O)[O-])cc1)N/N=C/c1ccccc1` [MIT 9952-186] was tested, and the “ENDOHDL Test 1” value was 0.5 and the “ENDOHDL Test 2” value was 0.5.
With `O=C(Nc1nc(-c2ccccc2)cs1)Nc1ccc(Cl)cc1Cl` [MIT 9952-232] the “ENDOHDL Test 1” value was 0.61 and the “ENDOHDL Test 2” value was 0.56.
`Cc1cc(C(=O)N/C=C\c2c(Cl)ccc3ccccc23)[nH]n1` [MIT 9952-38] was tested, and the “ENDOHDL Test 1” value was 0.34 and the “ENDOHDL Test 2” value was 0.52.
With `O=C(/C=C/c1cccc([N+](=O)[O-])c1)Nc1cccc(Cl)c1` [MIT 9952-291] the “ENDOHDL Test 1” value [1] was 0.55 and the “ENDOHDL Test 2” value [1] was 0.51.
`CO/C(=N\C(NC(=S)Nc1ccc(Br)cc1)C(Cl)(Cl)Cl)c1ccc(C)cc1` (stereo not shown) [MIT 9952-198] was tested, and the “ENDOHDL Test 1” value was 0.67 and the “ENDOHDL Test 2” value was 0.64.
In the case of `COc1cccc(/C=N/Nc2ccc([N+](=O)[O-])cc2)c1` [MIT 9952-240], the “ENDOHDL Test 1” value is reported as 0.64 and the “ENDOHDL Test 2” value is reported as 0.71.
`O=C1CC(N2CCOCC2)C(=O)N1c1ccc(Br)cc1` (stereo not shown) [MIT 9952-81] was tested, and the “ENDOHDL Test 1” value was 1.32 and the “ENDOHDL Test 2” value was 1.17.
In the case of `COc1c(Cl)cc(Cl)cc1C(=O)Nc1ccc(Br)cc1` [MIT 9952-155], the “ENDOHDL Test 1” value is reported as 0.69 and the “ENDOHDL Test 2” value is reported as 0.47.
With `COc1ccc2c(c1)c(C(C)=O)c(C)n2-c1ccccc1` [MIT 9952-212] the “ENDOHDL Test 1” value was 0.57 and the “ENDOHDL Test 2” value was 0.49.
`COc1ccc(NC(=O)Oc2cc(C(C)(C)C)cc(C(C)(C)C)c2)cc1Cl` [MIT 9952-182] was tested, and the “ENDOHDL Test 1” value was 0.71 and the “ENDOHDL Test 2” value was 0.41.
For `O=C(Nc1ccc(Cl)c(Cl)c1)c1ccccc1Br` [MIT 9952-268], the “ENDOHDL Test 1” value was 0.59 and the “ENDOHDL Test 2” value was 0.65.
For `COc1ccc(C(=O)Nc2ccc(C(C)C)cc2)cc1OC` [MIT 9952-277], the “ENDOHDL Test 1” value was 0.66 and the “ENDOHDL Test 2” value was 0.65.
In the case of `CN(CC#CC(O)(c1ccccc1)c1ccccc1)C1CCCCC1` [MIT 9952-72], the “ENDOHDL Test 1” value is reported as 1.07 and the “ENDOHDL Test 2” value is reported as 1.12.
For `Brc1ccc(-c2cc(-c3ccccc3)nc(N3CCOCC3)n2)cc1` [MIT 9952-261], the “ENDOHDL Test 1” value was 0.62 and the “ENDOHDL Test 2” value was 0.66.
For `CCN1/C(=C/c2sc3ccccc3[n+]2CC)Sc2ccccc21.Cc1ccc(S(=O)(=O)[O-])cc1` [MIT 9952-267], the “ENDOHDL Test 1” value was 0.57 and the “ENDOHDL Test 2” value was 1.11.
For `O=C(COc1ccc(Cl)cc1)N/N=C/c1ccc(Cl)cc1` [MIT 9952-31], the “ENDOHDL Test 1” value was 1.33 and the “ENDOHDL Test 2” value was 1.17.
With `O=C(Nc1ccc(NC(=O)c2cccc([N+](=O)[O-])c2)c(Cl)c1)c1cccc([N+](=O)[O-])c1` [MIT 9952-162] the “ENDOHDL Test 1” value was 0.55 and the “ENDOHDL Test 2” value was 0.4.
`CC1=C(C(=O)OCc2ccccc2)C(c2ccc(N(C)C)cc2)NC(=O)N1` (stereo not shown) [MIT 9952-163] was tested, and the “ENDOHDL Test 1” value was 0.6 and the “ENDOHDL Test 2” value was 0.69.
For `O=C(/C=C/c1cccc([N+](=O)[O-])c1)Nc1cccc(C(F)(F)F)c1` [MIT 9952-290], the “ENDOHDL Test 1” value [1] was 0.52 and the “ENDOHDL Test 2” value [1] was 0.56.
